Assay results reported in patent US11484529B2, “Desmethylanethole trithione derivatives for the treatment of diseases linked to mitochondrial reactive oxygen species (ROS) production” (OP2 Drugs, priority 2017, dated 2022).
“Also recorded” adds a separate entry of the source.

Tests used:
[1] = tested on: isolated mitochondria from rat heart; experiment: Mitochondrial respiration / oxidative phosphorylation (oxygraph); assay type: biochemical
Description: Male Wistar rats (250-325 g; obtained from Janvier Labs, Le Genest-Saint-Isle, France) were killed by stunning and cervical dislocation, and the heart was quickly removed and washed in cold isolation medium containing 100 mM sucrose, 180 mM KCl, 50 mM Tris, 5 mM MgCl2, 10 mM EDTA, and 0.1% (w/v) defatted BSA (pH 7.2).
Isolation of heart mitochondria was performed in a cold chamber. Before homogenization, hearts (about 1.5 g) were minced with scissors and treated for 5 minutes in 5 mL of the same medium supplemented with protease (2 mg of bacterial proteinase type XXIV per mL of isolation buffer) with stirring. The tissue suspension was poured into a 50-mL glass Potter homogenizer, diluted with 20 mL of isolation buffer, then homogenized for 3 minutes using a motorized Teflon pestle. The homogenate was filtered through bolting cloth (Sefar Nitex) to remove debris, and centrifuged at 8,000 g for 10 minutes. The resulting pellet was rinsed with 5 mL of isolation buffer, resuspended in 25 mL of the same buffer, then subjected to low speed centrifugation (400 g) for 8 minutes. […] Protein concentration was determined by the Bradford method (Sigma, kit #B6916) using BSA as standard. […]
(§1) Oxygen consumption rates of heart mitochondria (0.1 mg/mL), incubated in the absence or presence of AOL at increasing doses (from 0 to 80 μM final concentration), were recorded polarographically under constant stirring at 25° C. using a high-resolution oximeter (Oxygraph-2K, Oroboros Instruments, Austria). […]
Isolation of heart mitochondria was performed in a cold chamber. […] Protein concentration was determined by the Bradford method (Sigma, kit # B6916) using BSA as standard. […]
as §1, with “AOX” for “AOL”, “100” for “80”

[2] = tested on: H460 cells; experiment: Oxygen consumption of resting carcinoma cells (oxygraphy); assay type: cell-based, human; conditions: 0 to 40 μM
Description: Human non-small cell carcinoma cell line H460 and A549 were obtained from ATCC. Cells were cultured in growth medium consisting of DMEM (GIBCO), 10% FBS (GIBCO) and 100 units of penicillin and 100 μg/mL streptomycin (GIBCO). The cells were maintained in either 75-cm^2 T-flasks or 175-cm^2 T-flasks (BD Biosciences) in an incubator (model 3100 series, Forma Scientific, Marietta, Ohio) controlled at 37° C., 95% humidity, and 5% CO2. Cell culture medium was refreshed every other day. Every 2 to 3 days, H460 and A549 cultures were detached from the flasks using a 0.25% trypsin solution (Gibco) and subcultured. All cultures were maintained at 80-90% confluence at the time of subculture.
The effects of AOX (0 to 40 μM) were assessed on carcinoma cells using the classical oxygraphic approach and compared to the effects of sister molecule AOL.
Oxygen consumption of H460 resting cells has been measured continuously and increasing concentrations of AOL and AOX (0 to 40 μM) have been injected to the preparation (FIG. 24).

Row | Structure (SMILES) | oxidation rate under substrate state and ATR state ([1]; AOX 20 to 100 μM, succinate (+ rotenone)) | concentrations with uncoupling effect on oxidative phosphorylation ([1]; succinate (+ rotenone)) | rate of oxygen consumption by H460 cells [2] | effect on mitochondrial respiration / oxidative phosphorylation ([1]; AOL 5 to 80 μM, glutamate+malate, succinate(+rotenone) or all substrates, substrate, ADP and ATR states)
1 | Oc1ccc(-c2cc(=S)ss2)cc1 [AOX, 5-(4-hydroxyphenyl)-3H-1,2-dithiole-3-thione] | increase for concentrations up to 50 μM followed by a decrease for concentrations over 50 μM | higher than 20 μM | no change in the rate of oxygen consumption | 
2 | COc1ccc(-c2cc(=S)ss2)cc1 [AOL, 5-(4-methoxyphenyl)-3H-1,2-dithiole-3-thione] |  |  | no change in the rate of oxygen consumption | no statistical differences in mitochondrial respiration; also recorded: statistically no differences were observed
